{"source": "PubChem BioAssay (NCI)", "assay_in_all_cases": "growth of human tumour cells (NCI), 48 h", "key": {"[1]": {"tested_on": "ACHN renal"}, "[2]": {"tested_on": "HCT-116 colon"}, "[3]": {"tested_on": "HOP-62 NSCLC"}, "[4]": {"tested_on": "HT29 colon"}, "[5]": {"tested_on": "K-562 leukemia"}, "[6]": {"tested_on": "MALME-3M melanoma"}, "[7]": {"tested_on": "MOLT-4 leukemia"}, "[8]": {"tested_on": "NCI-H460 lung"}, "[9]": {"tested_on": "NCI-H522 lung"}, "[10]": {"tested_on": "OVCAR-4 ovarian"}, "[11]": {"tested_on": "OVCAR-5 ovarian"}, "[12]": {"tested_on": "RXF 393 renal"}, "[13]": {"tested_on": "SF-268 CNS"}, "[14]": {"tested_on": "SF-539 CNS"}, "[15]": {"tested_on": "SK-MEL-2 melanoma"}, "[16]": {"tested_on": "SK-MEL-5 melanoma"}, "[17]": {"tested_on": "TK-10 renal"}, "[18]": {"tested_on": "UO-31 renal"}, "[19]": {"tested_on": "SR leukemia"}}, "note": "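Grown in 96-well plates, cells were treated for 48 hours with each compound at five concentrations. Insufficient inhibition: endpoint recorded as highest concentration tested. At the TGI there is no net growth.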"}
{"smiles": "CSc1ccc2c(cc1=O)C(NC(=O)c1ccccc1)CCc1cc(O)c(O)c(O)c1-2", "note": "(configuration not stated)", "values": [{"measurement": "TGI", "setting": "[1]", "result": "> 100", "unit": "µM"}, {"measurement": "TGI", "setting": "[2]", "result": 36.4, "unit": "µM"}, {"measurement": "TGI", "setting": "[3]", "result": 57.8, "unit": "µM"}, {"measurement": "TGI", "setting": "[4]", "result": "> 100", "unit": "µM"}, {"measurement": "TGI", "setting": "[5]", "result": 37.2, "unit": "µM"}, {"measurement": "TGI", "setting": "[6]", "result": "> 100", "unit": "µM"}, {"measurement": "TGI", "setting": "[7]", "result": 54.2, "unit": "µM"}, {"measurement": "TGI", "setting": "[8]", "result": 40.3, "unit": "µM"}, {"measurement": "TGI", "setting": "[9]", "result": 35.6, "unit": "µM"}, {"measurement": "TGI", "setting": "[10]", "result": 33.2, "unit": "µM"}, {"measurement": "TGI", "setting": "[11]", "result": "> 100", "unit": "µM"}, {"measurement": "TGI", "setting": "[12]", "result": "> 100", "unit": "µM"}, {"measurement": "TGI", "setting": "[13]", "result": "> 100", "unit": "µM"}, {"measurement": "TGI", "setting": "[14]", "result": 10.6, "unit": "µM"}, {"measurement": "TGI", "setting": "[15]", "result": "> 100", "unit": "µM"}, {"measurement": "TGI", "setting": "[16]", "result": 12.7, "unit": "µM"}, {"measurement": "TGI", "setting": "[17]", "result": "> 100", "unit": "µM"}, {"measurement": "TGI", "setting": "[18]", "result": "> 100", "unit": "µM"}]}
{"smiles": "O=c1c(C(c2ccc([N+](=O)[O-])cc2)c2c(O)c3ccccc3n(-c3ccccc3)c2=O)c(O)c2ccccc2n1-c1ccccc1", "values": [{"measurement": "TGI", "setting": "[1]", "result": 72, "unit": "µM"}, {"measurement": "TGI", "setting": "[2]", "result": 76.5, "unit": "µM"}, {"measurement": "TGI", "setting": "[3]", "result": 37.4, "unit": "µM"}, {"measurement": "TGI", "setting": "[5]", "result": "> 100", "unit": "µM"}, {"measurement": "TGI", "setting": "[6]", "result": 28.8, "unit": "µM"}, {"measurement": "TGI", "setting": "[7]", "result": 41.9, "unit": "µM"}, {"measurement": "TGI", "setting": "[9]", "result": 86.6, "unit": "µM"}, {"measurement": "TGI", "setting": "[10]", "result": "> 100", "unit": "µM"}, {"measurement": "TGI", "setting": "[11]", "result": "> 100", "unit": "µM"}, {"measurement": "TGI", "setting": "[12]", "result": 40.1, "unit": "µM"}, {"measurement": "TGI", "setting": "[13]", "result": 98.6, "unit": "µM"}, {"measurement": "TGI", "setting": "[14]", "result": 28, "unit": "µM"}, {"measurement": "TGI", "setting": "[15]", "result": 31, "unit": "µM"}, {"measurement": "TGI", "setting": "[16]", "result": 38, "unit": "µM"}, {"measurement": "TGI", "setting": "[19]", "result": 62.7, "unit": "µM"}, {"measurement": "TGI", "setting": "[17]", "result": "> 100", "unit": "µM"}, {"measurement": "TGI", "setting": "[18]", "result": 21.3, "unit": "µM"}]}
{"smiles": "Nc1ccn(CCOC(c2ccccc2)P(=O)(O)O)c(=O)n1", "note": "(configuration not stated)", "values": [{"measurement": "TGI", "setting": "[1]", "result": "> 100", "unit": "µM"}, {"measurement": "TGI", "setting": "[2]", "result": "> 100", "unit": "µM"}, {"measurement": "TGI", "setting": "[4]", "result": "> 100", "unit": "µM"}, {"measurement": "TGI", "setting": "[6]", "result": "> 100", "unit": "µM"}, {"measurement": "TGI", "setting": "[7]", "result": "> 100", "unit": "µM"}, {"measurement": "TGI", "setting": "[8]", "result": "> 100", "unit": "µM"}, {"measurement": "TGI", "setting": "[9]", "result": "> 100", "unit": "µM"}, {"measurement": "TGI", "setting": "[11]", "result": "> 100", "unit": "µM"}, {"measurement": "TGI", "setting": "[12]", "result": "> 100", "unit": "µM"}, {"measurement": "TGI", "setting": "[13]", "result": "> 100", "unit": "µM"}, {"measurement": "TGI", "setting": "[14]", "result": "> 100", "unit": "µM"}, {"measurement": "TGI", "setting": "[15]", "result": "> 100", "unit": "µM"}, {"measurement": "TGI", "setting": "[16]", "result": "> 100", "unit": "µM"}, {"measurement": "TGI", "setting": "[19]", "result": "> 100", "unit": "µM"}, {"measurement": "TGI", "setting": "[17]", "result": "> 100", "unit": "µM"}, {"measurement": "TGI", "setting": "[18]", "result": "> 100", "unit": "µM"}]}
{"smiles": "COc1ccc(-c2cc(=O)c3cc(Cl)ccc3[nH]2)cc1", "values": [{"measurement": "TGI", "setting": "[1]", "result": "> 100", "unit": "µM"}, {"measurement": "TGI", "setting": "[2]", "result": "> 100", "unit": "µM"}, {"measurement": "TGI", "setting": "[3]", "result": "> 100", "unit": "µM"}, {"measurement": "TGI", "setting": "[4]", "result": "> 100", "unit": "µM"}, {"measurement": "TGI", "setting": "[5]", "result": "> 100", "unit": "µM"}, {"measurement": "TGI", "setting": "[6]", "result": "> 100", "unit": "µM"}, {"measurement": "TGI", "setting": "[7]", "result": "> 100", "unit": "µM"}, {"measurement": "TGI", "setting": "[8]", "result": "> 100", "unit": "µM"}, {"measurement": "TGI", "setting": "[9]", "result": "> 100", "unit": "µM"}, {"measurement": "TGI", "setting": "[10]", "result": "> 100", "unit": "µM"}, {"measurement": "TGI", "setting": "[11]", "result": "> 100", "unit": "µM"}, {"measurement": "TGI", "setting": "[12]", "result": "> 100", "unit": "µM"}, {"measurement": "TGI", "setting": "[13]", "result": "> 100", "unit": "µM"}, {"measurement": "TGI", "setting": "[14]", "result": "> 100", "unit": "µM"}, {"measurement": "TGI", "setting": "[16]", "result": "> 100", "unit": "µM"}, {"measurement": "TGI", "setting": "[19]", "result": "> 100", "unit": "µM"}, {"measurement": "TGI", "setting": "[17]", "result": "> 100", "unit": "µM"}, {"measurement": "TGI", "setting": "[18]", "result": "> 100", "unit": "µM"}]}
{"smiles": "CNC(=O)N1CN(c2ccccc2)C2(CCN(Cc3ccccc3)CC2)C1=O", "values": [{"measurement": "TGI", "setting": "[1]", "result": "> 100", "unit": "µM"}, {"measurement": "TGI", "setting": "[2]", "result": "> 100", "unit": "µM"}, {"measurement": "TGI", "setting": "[3]", "result": "> 100", "unit": "µM"}, {"measurement": "TGI", "setting": "[4]", "result": "> 100", "unit": "µM"}, {"measurement": "TGI", "setting": "[5]", "result": "> 100", "unit": "µM"}, {"measurement": "TGI", "setting": "[6]", "result": "> 100", "unit": "µM"}, {"measurement": "TGI", "setting": "[7]", "result": 46.8, "unit": "µM"}, {"measurement": "TGI", "setting": "[9]", "result": "> 100", "unit": "µM"}, {"measurement": "TGI", "setting": "[11]", "result": 64.1, "unit": "µM"}, {"measurement": "TGI", "setting": "[12]", "result": "> 100", "unit": "µM"}, {"measurement": "TGI", "setting": "[13]", "result": "> 100", "unit": "µM"}, {"measurement": "TGI", "setting": "[14]", "result": "> 100", "unit": "µM"}, {"measurement": "TGI", "setting": "[16]", "result": "> 100", "unit": "µM"}, {"measurement": "TGI", "setting": "[19]", "result": 52.3, "unit": "µM"}, {"measurement": "TGI", "setting": "[17]", "result": "> 100", "unit": "µM"}, {"measurement": "TGI", "setting": "[18]", "result": "> 100", "unit": "µM"}]}
{"smiles": "Cn1ccc(=NS(=O)(=O)c2ccccc2)cc1", "values": [{"measurement": "TGI", "setting": "[1]", "result": "> 100", "unit": "µM"}, {"measurement": "TGI", "setting": "[2]", "result": "> 100", "unit": "µM"}, {"measurement": "TGI", "setting": "[3]", "result": "> 100", "unit": "µM"}, {"measurement": "TGI", "setting": "[4]", "result": "> 100", "unit": "µM"}, {"measurement": "TGI", "setting": "[5]", "result": "> 100", "unit": "µM"}, {"measurement": "TGI", "setting": "[6]", "result": "> 100", "unit": "µM"}, {"measurement": "TGI", "setting": "[7]", "result": "> 100", "unit": "µM"}, {"measurement": "TGI", "setting": "[8]", "result": "> 100", "unit": "µM"}, {"measurement": "TGI", "setting": "[9]", "result": "> 100", "unit": "µM"}, {"measurement": "TGI", "setting": "[11]", "result": "> 100", "unit": "µM"}, {"measurement": "TGI", "setting": "[12]", "result": "> 100", "unit": "µM"}, {"measurement": "TGI", "setting": "[13]", "result": "> 100", "unit": "µM"}, {"measurement": "TGI", "setting": "[14]", "result": "> 100", "unit": "µM"}, {"measurement": "TGI", "setting": "[15]", "result": "> 100", "unit": "µM"}, {"measurement": "TGI", "setting": "[16]", "result": "> 100", "unit": "µM"}, {"measurement": "TGI", "setting": "[17]", "result": "> 100", "unit": "µM"}, {"measurement": "TGI", "setting": "[18]", "result": "> 100", "unit": "µM"}]}
